Measurements taken from publication PMC5011961, “In vitro antimicrobial activities of animal-used quinoxaline 1,4-di-N-oxides against mycobacteria, mycoplasma and fungi” (BMC Veterinary Research, 2016).
Converted amounts (≈) assume the structure as drawn. Like-named read-outs stand apart in the source and are kept apart here.

How the values were obtained:
Candida albicans = assay: Antifungal assay, macrobroth 2-fold serial dilution MIC
Candida parapsilosis = assay: as above; conditions: Lodderomyces parapsilosis
Aspergillus fumigatus = assay: as above
Cryptococcus neoformans = assay: as above
Candida tropicalis = assay: as above
Trichophyton rubrum = assay: as above
Epidermophyton floccosum = assay: as above
Microsporum canis = assay: as above
M. gallisepticum = assay: Antimycoplasma assay, MIC in microtiter plates; conditions: Mycoplasmoides gallisepticum
Procedure: (§1) Briefly, 96-well microtiter Sensititre plates containing stabilized and freeze-dried antimicrobials were used. Three wells on each plate were set as antimicrobial free growth control. Freshly thawed mycoplasma isolates with known titers were diluted in liquid medium until the number of organisms reached 10^4 color changing units/mL. 50 μL of the diluted culture was transferred into each well of the Sensititre plates. […] The plates were sealed using an adhesive foil and incubated at 36 °C for 14 days. The growth of M. hyopneumoniae was observed daily when the color of the medium changed from red to yellow (phenol red indicator), and the initial and final MICs were recorded.

M. hyopneumoniae = assay: Antimycoplasma assay, MIC in microtiter plates; conditions: Mesomycoplasma hyopneumoniae
Procedure: as §1

M. bovis ATCC 19210 = assay: microbe, parasite or virus in culture; format: cell-based, Mycobacterium bovis; conditions: Mycobacterium tuberculosis variant bovis, ATCC19210
mycoplasma = assay: Antimycoplasma assay, overall statements; format: cell-based; conditions: range over Mycoplasma gallisepticum and Mycoplasma hyopneumoniae strains
M. tuberculosis complex = assay: Combination susceptibility assay (checkerboard method), overall statements; format: cell-based; conditions: combined with rifampicin
[1] = test system: M. tuberculosis H37Ra ATCC 25177; assay: Microdilution alamar blue assay (MABA)
Procedure: Briefly, each of the above Mycobacterium strains was cultured at 37 °C in Middlebrook 7H9 broth supplemented with 0.2 % glycerol and 10 % Oleic Acid-Albumin-Dextrose-Catalase (Sigma, St Louis, MO, USA) until logarithmic growth was reached. About 6 × 10^6 CFU/mL inoculum of Mycobacterium strain was then added to the two fold serially diluted drug samples. The final concentration of DMSO in all assays was 2.5 % or less and this dilution also served as solvent control. The samples were assayed in triplicate. All tests were carried out in sterile flat bottom 96-well microplates. Each microplate was incubated for 5 days at 37 °C in a sealed plastic CO2-permeable bag. After 7 days of incubation, 32 μL of a mixture of freshly prepared Alamar Blue solution and 20 % sterile Tween-80 at 1:1 (v/v) were added to the growth-control well. The microplates were incubated at 37 °C for 24 h. […] A well-defined pink color was interpreted as positive bacterial growth, whereas a blue color indicated an absence of growth.

Marc-145 cells = assay: Cytotoxicity assay (MTT); conditions: for TC50: Marc-145, 72 h, MTT, mean ± SD, n = 4; for MNTC: Marc-145, maximum non-cytotoxic concentration (90 % cell viability)
[2] = test system: M. tuberculosis H37Rv ATCC 27294; assay: Microdilution alamar blue assay (MABA); format: cell-based, Mycobacterium tuberculosis; conditions: Mycobacterium tuberculosis, read-out: MIC
PK-15 cells = assay: Cytotoxicity assay (MTT); conditions: for TC50: PK-15, 72 h, MTT, mean ± SD, n = 4; for MNTC: PK-15, maximum non-cytotoxic concentration (90 % cell viability)
Mycoplasma gallisepticum = assay: Combination susceptibility assay (checkerboard method); format: cell-based; conditions: combined with tetracyclines (tetracycline and doxycycline), M. gallisepticum
PPV = assay: Antiviral assay (CPE/MTT; adsorption inhibition, infection inhibition, virucidal); format: cell-based, porcine parvovirus; parameters: key to IC50: “--” represent not detected owing to the low inhibition ratio; conditions: PPV, mean±SD of four experiments
PRRSV = assay: as above; format: cell-based, porcine reproductive and respiratory syndrome virus; parameters: key to IC50: “--”represent not detected owing to the low inhibition ratio; conditions: PRRSV, mean±SD of four experiments
DF-1 cells = assay: Cytotoxicity assay (MTT); conditions: for TC50: DF-1, 72 h, MTT, mean ± SD, n = 4; for MNTC: DF-1, maximum non-cytotoxic concentration (90 % cell viability)
IBDV = assay: Antiviral assay (CPE/MTT; adsorption inhibition, infection inhibition, virucidal); format: cell-based, infectious bursal disease virus; parameters: key to IC50: “--” represent not detected owing to the low inhibition ratio; conditions: IBDV, mean±SD of four experiments
[3] = test system: M. tuberculosis H37Rv ATCC 27294; parameters: method as in PMID 14561478; conditions: previous report; cited from earlier work
[4] = A. fumigatus 3.5301, deep fungi
[5] = A. fumigatus 3.5352, deep fungi
[6] = Candida tropicalis, C. tropicalis 2.2735, deep fungi
[7] = Candida tropicalis, C. tropicalis 7349, deep fungi
[8] = M. gallisepticum BG44T (10^4ccu/mL)
[9] = M. gallisepticum MG-HS (10^6ccu/mL)
[10] = M. gallisepticum PG31 (10^8 ccu/mL)

Row | SMILES | MIC (Candida albicans; C. albicans 2.4122, deep fungi) [µg/mL] | MIC (Candida albicans; C. albicans 90028, deep fungi) [µg/mL] | MIC (Candida parapsilosis) [µg/mL] | MIC (Aspergillus fumigatus; [4]) [µg/mL] | MIC (Aspergillus fumigatus; [5]) [µg/mL] | MIC (Cryptococcus neoformans) [µg/mL] | MIC (Candida tropicalis; [6]) [µg/mL] | MIC (Trichophyton rubrum) [µg/mL] | MIC (Trichophyton rubrum; ATCC4438) [µg/mL] | MIC (Epidermophyton floccosum) [µg/mL] | MIC (Epidermophyton floccosum; CBS566094) [µg/mL] | MIC (Microsporum canis) [µg/mL] | MIC (Microsporum canis; CBS113480) [µg/mL] | MIC (M. gallisepticum; [8]) [µg/mL] | MIC (M. gallisepticum; [9]) [µg/mL] | MIC (M. gallisepticum; [10]) [µg/mL] | MIC (M. hyopneumoniae) [µg/mL] | MIC (M. bovis ATCC 19210) [µg/mL] | MIC [1] [µg/mL] | MIC [2] [µg/mL] | further results
1 | C[C@@H]1[C@H](O)[C@@H](C)/C=C/C=C/C=C/C=C/C=C/C=C/C=C/[C@H](O[C@@H]2O[C@H](C)[C@@H](O)[C@H](N)[C@@H]2O)C[C@@H]2O[C@](O)(C[C@@H](O)C[C@@H](O)[C@H](O)CC[C@@H](O)C[C@@H](O)CC(=O)O[C@H]1C)C[C@H](O)[C@H]2C(=O)O [AMB, amphotericin B] | 2 (≈ 2.16 µM) | 1 (≈ 1.08 µM) | 1 (≈ 1.08 µM) | 0.5 (≈ 0.541 µM) | 0.5 (≈ 0.541 µM) | 0.5 (≈ 0.541 µM) | 2 (≈ 2.16 µM) | 1 (≈ 1.08 µM) | 1 (≈ 1.08 µM) | 0.5 (≈ 0.541 µM) | 0.5 (≈ 0.541 µM) | 1 (≈ 1.08 µM) | 0.5 (≈ 0.541 µM) |  |  |  |  |  |  |  | MIC (Candida tropicalis; [7]): 2 µg/mL (≈ 2.16 µM)
2 | CC[C@H]1OC(=O)C[C@@H](O)[C@H](C)[C@@H](O[C@@H]2O[C@H](C)[C@@H](O[C@H]3C[C@@](C)(O)[C@@H](O)[C@H](C)O3)[C@H](N(C)C)[C@H]2O)[C@@H](CC=O)C[C@@H](C)C(=O)/C=C/C(C)=C/[C@@H]1CO[C@@H]1O[C@H](C)[C@@H](O)[C@@H](OC)[C@H]1OC [Tylosin, tylosin] |  |  |  |  |  |  |  |  |  |  |  |  |  | 0.05 (≈ 0.0546 µM) | 0.025 (≈ 0.0273 µM) | 0.025 (≈ 0.0273 µM) | 0.05 (≈ 0.0546 µM) |  |  |  | 
3 | Cc1c(C(=O)/C=C/c2ccccc2)[n+]([O-])c2ccccc2[n+]1[O-] [QCT, quinocetone] | > 64 | > 64 | 64 (≈ 209 µM) | 64 (≈ 209 µM) | 64 (≈ 209 µM) | 64 (≈ 209 µM) | > 64 | 32 (≈ 104 µM) | 32 (≈ 104 µM) | 32 (≈ 104 µM) | 32 (≈ 104 µM) | 16 (≈ 52.2 µM) | 8 (≈ 26.1 µM) | 8 (≈ 26.1 µM) | 16 (≈ 52.2 µM) | 16 (≈ 52.2 µM) | 16 (≈ 52.2 µM) | 4 (≈ 13.1 µM) | 64 (≈ 209 µM) | 4 (≈ 13.1 µM) | MIC (mycoplasma): 8 to 16 µg/mL (≈ 26.1 to 52.2 µM); FIC (M. tuberculosis complex): 0.75; TC50 (Marc-145 cells): 8.90 ± 1.05 µg/mL (≈ 29.1 µM); MNTC (Marc-145 cells): 0.39 µg/mL; TC50 (PK-15 cells): 2.38 ± 0.27 µg/mL (≈ 7.77 µM); MNTC (PK-15 cells): 0.2 µg/mL; Combined effect (Mycoplasma gallisepticum): additive (0.5 to 1, additive); MIC (Candida tropicalis; [7]): > 64 µg/mL; IC50 (PPV; Inactivation): --; IC50 (PPV; Prevention): --; IC50 (PPV; Treatment): --; IC50 (PRRSV; Inactivation): --; IC50 (PRRSV; Prevention): --; IC50 (PRRSV; Treatment): --; TC50 (DF-1 cells): 9.89 ± 1.08 µg/mL (≈ 32.3 µM); MNTC (DF-1 cells): 0.25 µg/mL; IC50 (IBDV; Inactivation): --; IC50 (IBDV; Prevention): --; IC50 (IBDV; Treatment): --
4 | CC(=O)N1CCN(c2ccc(OCC3COC(Cn4ccnc4)(c4ccc(Cl)cc4Cl)O3)cc2)CC1 (centres unmarked) [KCZ, ketoconazole] | 0.5 (≈ 0.941 µM) | 0.25 (≈ 0.47 µM) | 0.125 (≈ 0.235 µM) | 0.25 (≈ 0.47 µM) | 0.5 (≈ 0.941 µM) | 0.25 (≈ 0.47 µM) |  | 0.5 (≈ 0.941 µM) | 0.5 (≈ 0.941 µM) | 0.25 (≈ 0.47 µM) | 0.25 (≈ 0.47 µM) | 0.5 (≈ 0.941 µM) | 0.25 (≈ 0.47 µM) |  |  |  |  |  |  |  | MIC (Candida tropicalis; C. tropicalis 2.2735, deep fungi): 0.5 µg/mL (≈ 0.941 µM); MIC (Candida tropicalis; Candida tropicalis): 0.5 µg/mL (≈ 0.941 µM)
5 | CC(=O)c1c(C)[n+]([O-])c2ccccc2[n+]1[O-] [MEQ, mequindox] | 32 (≈ 147 µM) | 64 (≈ 293 µM) | 64 (≈ 293 µM) | > 64 | > 64 | 32 (≈ 147 µM) | 64 (≈ 293 µM) | > 64 | > 64 | > 64 | 64 (≈ 293 µM) | > 64 | > 64 | 16 (≈ 73.3 µM) | 32 (≈ 147 µM) | 16 (≈ 73.3 µM) | 32 (≈ 147 µM) | 8 (≈ 36.7 µM) | 32 (≈ 147 µM) | 4 (≈ 18.3 µM) | MIC [3]: 3.13 µg/mL (≈ 14.3 µM); FIC (M. tuberculosis complex): 0.75; TC50 (Marc-145 cells): 41.28 ± 1.28 µg/mL (≈ 189 µM); MNTC (Marc-145 cells): 1.0 µg/mL; TC50 (PK-15 cells): 17.86 ± 1.28 µg/mL (≈ 81.8 µM); MNTC (PK-15 cells): 0.5 µg/mL; Combined effect (Mycoplasma gallisepticum): additive (0.5 to 1, additive); MIC (Candida tropicalis; [7]): > 64 µg/mL; IC50 (PPV; Inactivation): --; IC50 (PPV; Prevention): --; IC50 (PPV; Treatment): --; IC50 (PRRSV; Inactivation): --; IC50 (PRRSV; Prevention): --; IC50 (PRRSV; Treatment): --; TC50 (DF-1 cells): 40.01 ± 1.27 µg/mL (≈ 183 µM); MNTC (DF-1 cells): 2.0 µg/mL; IC50 (IBDV; Inactivation): --; IC50 (IBDV; Prevention): --; IC50 (IBDV; Treatment): --
6 | NNC(=O)c1ccncc1 [Isoniazid, isoniazid] |  |  |  |  |  |  |  |  |  |  |  |  |  |  |  |  |  | 0.025 (≈ 0.182 µM) | 16 (≈ 117 µM) | 0.025 (≈ 0.182 µM) | 
7 | N#CCC(=O)N/N=C/c1c[n+]([O-])c2ccccc2[n+]1[O-] [CYA, cyadox] | 32 (≈ 118 µM) | 64 (≈ 236 µM) | 32 (≈ 118 µM) | 64 (≈ 236 µM) | 32 (≈ 118 µM) | 16 (≈ 59 µM) | 32 (≈ 118 µM) | 32 (≈ 118 µM) | 32 (≈ 118 µM) | 32 (≈ 118 µM) | 32 (≈ 118 µM) | 32 (≈ 118 µM) | 16 (≈ 59 µM) | 32 (≈ 118 µM) | 16 (≈ 59 µM) | 16 (≈ 59 µM) | 16 (≈ 59 µM) | 8 (≈ 29.5 µM) | 64 (≈ 236 µM) | 4 (≈ 14.7 µM) | FIC (M. tuberculosis complex): 0.75; TC50 (Marc-145 cells): 16.92 ± 1.28 µg/mL (≈ 62.4 µM); MNTC (Marc-145 cells): 1.56 µg/mL; TC50 (PK-15 cells): 15.31 ± 1.23 µg/mL (≈ 56.4 µM); MNTC (PK-15 cells): 1.2 µg/mL; Combined effect (Mycoplasma gallisepticum): additive (0.5 to 1, additive); MIC (Candida tropicalis; [7]): 32 µg/mL (≈ 118 µM); IC50 (PPV; Inactivation): --; IC50 (PPV; Prevention): --; IC50 (PPV; Treatment): --; IC50 (PRRSV; Inactivation): --; IC50 (PRRSV; Prevention): --; IC50 (PRRSV; Treatment): --; TC50 (DF-1 cells): 17.26 ± 1.27 µg/mL (≈ 63.6 µM); MNTC (DF-1 cells): 1.0 µg/mL; IC50 (IBDV; Inactivation): --; IC50 (IBDV; Prevention): --; IC50 (IBDV; Treatment): --
8 | CCN1CCN(c2cc3c(cc2F)c(=O)c(C(=O)O)cn3C2CC2)CC1 [Enrofloxacin, enrofloxacin] |  |  |  |  |  |  |  |  |  |  |  |  |  | 0.013 (≈ 0.0362 µM) | 0.05 (≈ 0.139 µM) | 0.025 (≈ 0.0696 µM) | 0.025 (≈ 0.0696 µM) |  |  |  | 
9 | CO[C@H]1/C=C/O[C@@]2(C)Oc3c(C)c(O)c4c(O)c(c(/C=N/N5CCN(C)CC5)c(O)c4c3C2=O)NC(=O)/C(C)=C\C=C\[C@H](C)[C@H](O)[C@@H](C)[C@@H](O)[C@@H](C)[C@H](OC(C)=O)[C@@H]1C [Rifampicin, rifampicin] |  |  |  |  |  |  |  |  |  |  |  |  |  |  |  |  |  | 0.025 (≈ 0.0304 µM) | 1.6 (≈ 1.94 µM) | 0.05 (≈ 0.0608 µM) | 
